For one assay, the target named is T1, SGLT-2 (Homo sapiens, UniProt P31639).
T1 construct: expressed in transfected cells
T1 sequence (P31639 1-672): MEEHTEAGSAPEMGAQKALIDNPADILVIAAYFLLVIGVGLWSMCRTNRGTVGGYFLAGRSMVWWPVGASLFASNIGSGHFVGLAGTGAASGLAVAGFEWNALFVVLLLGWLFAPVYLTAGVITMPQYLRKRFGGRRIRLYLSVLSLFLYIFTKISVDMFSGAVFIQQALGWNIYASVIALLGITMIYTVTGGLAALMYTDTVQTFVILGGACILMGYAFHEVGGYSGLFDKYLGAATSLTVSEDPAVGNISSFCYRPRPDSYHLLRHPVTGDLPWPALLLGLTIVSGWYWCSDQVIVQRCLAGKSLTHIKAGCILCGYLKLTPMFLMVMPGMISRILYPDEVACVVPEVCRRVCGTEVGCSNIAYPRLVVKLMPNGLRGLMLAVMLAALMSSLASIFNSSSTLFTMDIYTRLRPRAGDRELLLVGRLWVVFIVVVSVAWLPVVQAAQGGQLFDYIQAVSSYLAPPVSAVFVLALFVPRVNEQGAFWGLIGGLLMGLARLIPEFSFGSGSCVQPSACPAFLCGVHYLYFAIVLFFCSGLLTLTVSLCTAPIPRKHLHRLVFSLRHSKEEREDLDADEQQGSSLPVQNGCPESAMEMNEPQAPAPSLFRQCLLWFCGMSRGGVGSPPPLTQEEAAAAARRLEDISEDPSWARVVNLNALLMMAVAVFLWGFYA
Briefly: SGLT-2 activity measurement ([14C]-AMG uptake in CHO cells expressing human SGLT2). In kind it is cell-based. As to conditions: CHO cells expressing human SGLT2, 0.5 μm [14C]-AMG, 37° C. for 1 hour. From the text: (§1) The following methods can be used to determine the inhibitory activity of the compounds described in the invention for SGLT-1 and SGLT-2.
(§2) ^14C-AMG solution was purchased from PerkinElmer, Cat. No. NEZ080001MC.
(§3) α-Methylglucoside was purchased from Sigma, Cat. No. M9376-100G.
(§4) N-methyl-D-glucosamine was purchased from Sigma, Cat. No. M2004-100G.
(§5) Phloridzin was purchased from Sigma, Cat. No. P3449-1G.
(§6) 96-Well plate was purchased from Corning, Cat. No. 3903.
(§7) Mock-transfected FIP-in CHO cells (3×10^4 cells) and expressing human SGLT1/SGLT2 CHO cells were seeded into 96-well plates respectively. The cells were incubated for 12 hours. Each well of the 96-well plates was washed with 150 μL of sodium-free buffer once. To each well was added 50 μL of sodium-containing buffer containing test compounds having different concentrations and […] [^14C]-AMG. The incubation mixture was incubated at 37° C. for 1 hour. To each well was added 150 μL of precooled sodium-free buffer to terminate the reaction. The cell pellet was washed with sodium-free buffer three times and the residual liquid in well was removed. To each well was added 20 μL of precooled 100 mM NaOH. The 96-well plates were vibrated at 900 rpm for 5 minutes. Scintillation fluid (80 μL) was added to each well which was then vibrated at 600 rpm for 5 minutes. The amount of ^14C-AMG was quantitatively detected using liquid scintillation.

In the next assay the target is T2, SGLT-1 (Homo sapiens, UniProt P13866).
T2 construct: expressed in transfected cells
T2 sequence (P13866 1-664): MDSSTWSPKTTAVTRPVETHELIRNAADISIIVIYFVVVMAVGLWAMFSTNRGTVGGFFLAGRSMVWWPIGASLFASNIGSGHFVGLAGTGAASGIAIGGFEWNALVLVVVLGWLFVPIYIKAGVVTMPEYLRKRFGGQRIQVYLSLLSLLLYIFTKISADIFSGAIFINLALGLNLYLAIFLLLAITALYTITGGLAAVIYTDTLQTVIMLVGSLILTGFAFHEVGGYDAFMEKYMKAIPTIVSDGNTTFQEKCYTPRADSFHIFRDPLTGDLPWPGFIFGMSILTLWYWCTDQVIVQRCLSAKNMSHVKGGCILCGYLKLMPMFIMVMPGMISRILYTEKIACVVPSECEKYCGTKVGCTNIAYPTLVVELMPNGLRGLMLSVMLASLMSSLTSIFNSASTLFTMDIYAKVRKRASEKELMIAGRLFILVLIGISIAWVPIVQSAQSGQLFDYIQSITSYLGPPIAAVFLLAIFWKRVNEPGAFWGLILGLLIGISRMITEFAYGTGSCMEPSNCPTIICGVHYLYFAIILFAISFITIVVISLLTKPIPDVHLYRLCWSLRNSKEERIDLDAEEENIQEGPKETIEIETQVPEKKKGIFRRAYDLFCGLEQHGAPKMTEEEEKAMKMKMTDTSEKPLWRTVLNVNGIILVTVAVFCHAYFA
Briefly: SGLT-1 activity measurement ([14C]-AMG uptake in CHO cells expressing human SGLT1). The class given is cell-based. As to conditions: CHO cells expressing human SGLT1, 0.5 μm [14C]-AMG, 37° C. for 1 hour.
Text: as §1, §2, §3, §4, §5, §6, §7

In the case of `CC(C)(O)[C@@]12CO[C@@](c3ccc(Cl)c(Cc4ccc(OC(F)(F)F)cc4)c3)(O1)[C@H](O)[C@@H](O)[C@@H]2O` [Example 16, (1S,2S,3S,4R,5S)-5-[4-chloro-3-[[4-(trifluoromethoxy)phenyl]methyl]phenyl]-1-(1-hydroxy-1-methyl-ethyl)-6,8-dioxabicyclo[3.2.1]octane-2,3,4-triol], the results for the IC50 against SGLT-2 and against SGLT-1 were 2.95 nM and 1310 nM, respectively.
For the compound `CC(O)[C@@]12CO[C@@](c3ccc(Cl)c(Cc4ccc(OCC(F)(F)F)cc4)c3)(O1)[C@H](O)[C@@H](O)[C@@H]2O` (stereo partly drawn) [Example 17, (1R,2S,3S,4R,5S)-5-[4-Chloro-3-[[4-(2,2,2-trifluoroethoxy)phenyl]methyl]phenyl]-1-(1-hydroxyethyl)-6,8-dioxabicyclo[3.2.1]octane-2,3,4-triol], the IC50 against SGLT-2 is 1.22 nM; against SGLT-1, 820 nM.
For the compound `CC(C)(O)[C@@]12CO[C@@](c3ccc(Cl)c(Cc4ccc(OCC(F)(F)F)cc4)c3)(O1)[C@H](O)[C@@H](O)[C@@H]2O` [Example 18, (1S,2S,3S,4R,5S)-5-[4-Chloro-3-[[4-(2,2,2-trifluoroethoxyl)phenyl]methyl]phenyl]-1-(1-hydroxy-1-methyl-ethyl)-6,8-dioxabicyclo[3.2.1]octane-2,3,4-triol], the half-maximal inhibitory concentration (IC50) on SGLT-2 came to 3.66 nM; against SGLT-1, 350 nM.
Regarding `CCOc1ccc(Cc2cc([C@]34OC[C@](C(C)O)(O3)[C@@H](O)[C@H](O)[C@H]4O)ccc2Cl)cc1F` (stereo partly drawn) [Example 19, (1R,2S,3S,4R,5S)-5-[4-chloro-3-[(4-ethoxy-3-fluoro-phenyl)methyl]phenyl]-1-(1-hydroxyethyl)-6,8-dioxabicyclo[3.2.1]octane-2,3,4-triol], the IC50 at SGLT-2 is 1.27 nM; against SGLT-1 it was 180 nM.
On the same counts, the results for `CCOc1ccc(Cc2cc([C@]34OC[C@](C(C)(C)O)(O3)[C@@H](O)[C@H](O)[C@H]4O)ccc2Cl)cc1F` [Example 20, (1S,2S,3S,4R,5S)-5-[4-Chloro-3-[(4-ethoxy-3-fluoro-phenyl)methyl]phenyl]-1-(1-hydroxy-1-methyl-ethyl)-6,8-dioxabicyclo[3.2.1]octane-2,3,4-triol] are 0.85 nM and 170 nM.
For `COc1ccc(Cc2cc([C@]34OC[C@](C(C)O)(O3)[C@@H](O)[C@H](O)[C@H]4O)ccc2Cl)c(F)c1F` (stereo partly drawn) [Example 21, (1R,2S,3S,4R,5S)-5-[4-Chloro-3-[(2,3-difluoro-4-methoxy-phenyl)methyl]phenyl]-1-(1-hydroxyethyl)-6,8-dioxabicyclo[3.2.1]octane-2,3,4-triol], the IC50 is 0.81 nM at SGLT-2 and 120 nM at SGLT-1.
As for `COc1ccc(Cc2cc([C@]34OC[C@](C(C)(C)O)(O3)[C@@H](O)[C@H](O)[C@H]4O)ccc2Cl)c(F)c1F` [Example 22, (1S,2S,3S,4R,5S)-5-[4-Chloro-3-[(2,3-difluoro-4-methoxy-phenyl)methyl]phenyl]-1-(1-hydroxy-1-methyl-ethyl)-6,8-dioxabicyclo[3.2.1]octane-2,3,4-triol], the IC50 against SGLT-2 amounted to 1.84 nM; on SGLT-1 it was 1040 nM.
On to `CCOc1ccc(Cc2cc([C@]34OC[C@](C(C)O)(O3)[C@@H](O)[C@H](O)[C@H]4O)ccc2Cl)c(F)c1F` (stereo partly drawn) [Example 23, (1R,2S,3S,4R,5S)-5-[4-Chloro-3-[(4-ethoxy-2,3-difluoro-phenyl)methyl]phenyl]-1-(1-hydroxyethyl)-6,8-dioxabicyclo[3.2.1]octane-2,3,4-triol], for which the IC50 was found to be 2.28 nM against SGLT-2 and 560 nM on SGLT-1.
`CC(C)(O)[C@@]12CO[C@@](c3ccc(Cl)c(Cc4ccc(OCC(F)F)cc4)c3)(O1)[C@H](O)[C@@H](O)[C@@H]2O` [Example 25, (1S,2S,3S,4R,5S)-5-[4-Chloro-3-[[4-(2,2-difluoroethoxyl)phenyl]methyl]phenyl]-1-(1-hydroxy-1-methyl-ethyl)-6,8-dioxabicyclo[3.2.1]octane-2,3,4-triol]: the IC50 at SGLT-2 was 3.48 nM; on SGLT-1 it was 5560 nM.
As to `CCOc1ccc(Cc2cc([C@]34OC[C@](C(C)O)(O3)[C@H](O)[C@H](O)[C@H]4O)ccc2Cl)cc1` (stereo partly drawn) [Example 28, (1R,2R,3S,4R,5S)-5-[4-Chloro-3-[(4-ethoxyphenyl)methyl]phenyl]-1-(1-hydroxyethyl)-6,8-dioxabicyclo[3.2.1]octane-2,3,4-triol], the results for the IC50 at SGLT-2 and against SGLT-1 were 12.6 nM and 3400 nM, respectively.
